Results published in patent EP4678638A1, “NEW E3 UBIQUITIN LIGASE LIGAND, PROTEIN DEGRADATION AGENT AND USE THEREOF” (priority 2023, dated 2024).

Target: T1, IRAK4 (Homo sapiens, UniProt Q9NWZ3)
T1 construct: evaluate the effects of the compounds of the present disclosure on the expression of target proteins in cells; endogenous in cells; host or cells: hPBMC
T1 sequence (Q9NWZ3 1-460): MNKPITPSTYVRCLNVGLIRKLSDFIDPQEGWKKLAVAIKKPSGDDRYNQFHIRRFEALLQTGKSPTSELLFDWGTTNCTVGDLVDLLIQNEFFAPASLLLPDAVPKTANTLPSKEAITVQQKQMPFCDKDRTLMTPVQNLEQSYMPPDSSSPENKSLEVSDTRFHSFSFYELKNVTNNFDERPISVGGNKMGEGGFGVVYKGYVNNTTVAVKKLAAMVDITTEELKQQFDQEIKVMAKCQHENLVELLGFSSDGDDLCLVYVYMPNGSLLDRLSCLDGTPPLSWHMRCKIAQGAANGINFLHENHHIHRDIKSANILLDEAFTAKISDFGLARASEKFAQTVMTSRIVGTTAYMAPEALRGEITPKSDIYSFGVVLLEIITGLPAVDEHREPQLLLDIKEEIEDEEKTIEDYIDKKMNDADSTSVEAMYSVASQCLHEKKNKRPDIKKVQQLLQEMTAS
Experiment: Western blot degradation of IRAK4 (hPBMC)
Assay type: cell-based
Conditions: Table D1
Protocol: Conventional Western blot assay was performed to evaluate the effects of the compounds of the present disclosure on the expression of target proteins in cells.
(1) Cell Seeding and Protein Harvesting: The selected cells were processed according to the cell seeding procedure and protein harvesting procedure in Table III-2. Table III-2 Cell Seeding and Protein Harvesting Procedures
(2) To the collected supernatant, 5X SDS sample loading buffer was added, followed by denaturation at 95°C for 5 minutes. The denatured samples were then separated by SDS-PAGE electrophoresis on a polyacrylamide gel. Proteins were transferred to a nitrocellulose membrane (0.45 µm NC membrane), blocked with blocking buffer at room temperature for 1 hour, and subjected to antibody incubation and development procedures according to the antibody manufacturer's instructions (Cell Signaling Technology).
Half-Maximal Degradation Concentration value (the drug concentration required for degrading proteins by 50%, abbreviated as DC50) reads method: comparing the grayscale values of Western blot bands from drug-treated samples with those from blank DMSO-treated controls, and identifying the drug concentration range at which the grayscale value is half that of the DMSO-treated control bands.
DC50 values can be calculated using ImageJ software to measure grayscale values of Western blot bands from drug-treated samples. The concentration-response curve is fitted to estimate the drug concentration corresponding to half the grayscale value.
Target protein remaining (%) refers to the percentage of target protein remaining in hPBMC cells after treatment with protein degrader compounds.
Calculation method for target protein remaining (%): Use ImageJ software to measure grayscale values of Western blot bands from drug (protein degrader)-treated samples. The grayscale value of drug-treated bands is divided by that of internal control protein bands, and the resulting quotient is normalized to obtain the relative percentage of remaining target protein after protein degrader treatment.
Target protein degradation rate (%) = 100% - target protein remaining (%).

SMILES	Degradation of substrate protein IRAK4 (substrate protein remaining %)
CC(C)Nc1cc(-n2ccc3cc(C#N)cnc32)ncc1C(=O)NC1CCN(Cc2cncc(N3CCC(=O)NC3=O)c2)CC1 [GT-07410, 6-(5-cyano-1H-pyrrolo[2,3-b]pyridin-1-yl)-N-(1-((5-(2,4-dioxotetrahydropyrimidin-1(2H)-yl)pyridin-3-yl)methyl)piperidin-4-yl)-4-(isopropylamino)nicotinamide]	A (A is defined as 0% ≤ substrate protein remaining % ≤ 80%)
CC(C)Nc1cc(-n2ccc3cc(C#N)cnc32)ncc1C(=O)NC1CCN(Cc2ccc(C3CCC(=O)NC3=O)cn2)CC1 (stereo not shown) [GT-07411, 6-(5-cyano-1H-pyrrolo[2,3-b]pyridin-1-yl)-N-(1-((5-(2,6-dioxopiperidin-3-yl)pyridin-2-yl)methyl)piperidin-4-yl)-4-(isopropylamino)nicotinamide]	A (A is defined as 0% ≤ substrate protein remaining % ≤ 80%)
CC(C)Nc1cc(-n2ccc3cc(C#N)cnc32)ncc1C(=O)NC1CCN(Cc2ccnc(C3CCC(=O)NC3=O)c2)CC1 (stereo not shown) [GT-07412, 6-(5-cyano-1H-pyrrolo[2,3-b]pyridin-1-yl)-N-(1-((2-(2,6-dioxopiperidin-3-yl)pyridin-4-yl)methyl)piperidin-4-yl)-4-(isopropylamino)nicotinamide]	A (A is defined as 0% ≤ substrate protein remaining % ≤ 80%)
CC(C)Nc1cc(-n2ccc3cc(C#N)cnc32)ncc1C(=O)NC1CCN(Cc2cncc(C3CCC(=O)NC3=O)c2)CC1 (stereo not shown) [GT-07413, 6-(5-cyano-1H-pyrrolo[2,3-b]pyridin-1-yl)-N-(1-((5-(2,6-dioxopiperidin-3-yl)pyridin-3-yl)methyl)piperidin-4-yl)-4-(isopropylamino)nicotinamide]	A (A is defined as 0% ≤ substrate protein remaining % ≤ 80%)
COc1cc2nn(C3CCN(Cc4cc(N5CCC(=O)NC5=O)ncc4F)CC3)cc2cc1NC(=O)c1cccc(C(F)(F)F)c1 [GT-07414, N-(2-(1-((2-(2,4-dioxotetrahydropyrimidin-1(2H)-yl)-5-fluoropyridin-4-yl)methyl)piperidin-4-yl)-6-methoxy-2H-indazol-5-yl)-3-(trifluoromethyl)benzamide]	A (A is defined as 0% ≤ substrate protein remaining % ≤ 80%)
COc1cc2nn(C3CCN(Cc4ccnc(N5CCC(=O)NC5=O)c4)CC3)cc2cc1NC(=O)c1cccc(C(F)(F)F)c1 [GT-07415, N-(2-(1-((2-(2,4-dioxotetrahydropyrimidin-1(2H)-yl)pyridin-4-yl)methyl)piperidin-4-yl)-6-methoxy-2H-indazol-5-yl)-3-(trifluoromethyl)benzamide]	A (A is defined as 0% ≤ substrate protein remaining % ≤ 80%)
COc1cc2nn(C3CCN(Cc4cncc(N5CCC(=O)NC5=O)c4)CC3)cc2cc1NC(=O)c1cccc(C(F)(F)F)c1 [GT-07416, N-(2-(1-((5-(2,4-dioxotetrahydropyrimidin-1(2H)-yl)pyridin-3-yl)methyl)piperidin-4-yl)-6-methoxy-2H-indazol-5-yl)-3-(trifluoromethyl)benzamide]	A (A is defined as 0% ≤ substrate protein remaining % ≤ 80%)
COc1cc2nn(C3CCN(Cc4ccnc(C5CCC(=O)NC5=O)c4)CC3)cc2cc1NC(=O)c1cccc(C(F)(F)F)c1 (stereo not shown) [GT-07418, N-(2-(1-((2-(2,6-dioxopiperidin-3-yl)pyridin-4-yl)methyl)piperidin-4-yl)-6-methoxy-2H-indazol-5-yl)-3-(trifluoromethyl)benzamide]	A (A is defined as 0% ≤ substrate protein remaining % ≤ 80%)
COc1cc2nn(C3CCN(Cc4ccnc(N5CCC(=O)NC5=O)c4)CC3)cc2cc1NC(=O)c1cccc(C(F)(F)F)n1 [GT-07532, N-(2-(1-((2-(2,4-dioxotetrahydropyrimidin-1(2H)-yl)pyridin-4-yl)methyl)piperidin-4-yl)-6-methoxy-2H-indazol-5-yl)-6-(trifluoromethyl)picolinamide]	A (A is defined as 0% ≤ substrate protein remaining % ≤ 80%)
CC(C)Nc1cc(-n2ccc3cc(C#N)cnc32)ncc1C(=O)NC1CCN(Cc2cccnc2C2CCC(=O)NC2=O)CC1 (stereo not shown) [GT-07546, 6-(5-cyano-1H-pyrrolo[2,3-b]pyridin-1-yl)-N-(1-((2-(2,6-dioxopiperidin-3-yl)pyridin-3-yl)methyl)piperidin-4-yl)-4-(isopropylamino)nicotinamide]	A (A is defined as 0% ≤ substrate protein remaining % ≤ 80%)
COc1cc2nn(C3CCN(Cc4cccnc4C4CCC(=O)NC4=O)CC3)cc2cc1NC(=O)c1cccc(C(F)(F)F)n1 (stereo not shown) [GT-07550, N-(2-(1-((2-(2,6-dioxopiperidin-3-yl)pyridin-3-yl)methyl)piperidin-4-yl)-6-methoxy-2H-indazol-5-yl)-6-(trifluoromethyl)picolinamide]	A (A is defined as 0% ≤ substrate protein remaining % ≤ 80%)
CC(C)(O)c1cc2nc(C3CCN(Cc4ccnc(N5CCC(=O)NC5=O)c4)CC3)sc2cc1NC(=O)c1cccc(C(F)(F)F)n1 [GT-07619, N-(2-(1-((2-(2,4-dioxotetrahydropyrimidin-1(2H)-yl)pyridin-4-yl)methyl)piperidin-4-yl)-5-(2-hydroxypropan-2-yl)benzo[d]thiazol-6-yl)-6-(trifluoromethyl)picolinamide]	A (A is defined as 0% ≤ substrate protein remaining % ≤ 80%)
CC(C)(O)c1cc2nc(C3CCN(Cc4ccnc(C5CCC(=O)NC5=O)c4)CC3)sc2cc1NC(=O)c1cccc(C(F)(F)F)n1 (stereo not shown) [GT-07622, N-(2-(1-((2-(2,6-dioxopiperidin-3-yl)pyridin-4-yl)methyl)piperidin-4-yl)-5-(2-hydroxypropan-2-yl)benzo[d]thiazol-6-yl)-6-(trifluoromethyl)picolinamide]	A (A is defined as 0% ≤ substrate protein remaining % ≤ 80%)
CC(C)(O)c1cc2nc(C3CCN(Cc4cccnc4C4CCC(=O)NC4=O)CC3)sc2cc1NC(=O)c1cccc(C(F)(F)F)n1 (stereo not shown) [GT-07625, N-(2-(1-((2-(2,6-dioxopiperidin-3-yl)pyridin-3-yl)methyl)piperidin-4-yl)-5-(2-hydroxypropan-2-yl)benzo[d]thiazol-6-yl)-6-(trifluoromethyl)picolinamide]	A (A is defined as 0% ≤ substrate protein remaining % ≤ 80%)
CC(C)(O)c1cc2nc(C3CCN(Cc4ccnc(N5CCC(=O)NC5=O)c4)CC3)oc2cc1NC(=O)c1cccc(C(F)(F)F)n1 [GT-07627, N-(2-(1-((2-(2,4-dioxotetrahydropyrimidin-1(2H)-yl)pyridin-4-yl)methyl)piperidin-4-yl)-5-(2-hydroxypropan-2-yl)benzo[d]oxazol-6-yl)-6-(trifluoromethyl)picolinamide]	A (A is defined as 0% ≤ substrate protein remaining % ≤ 80%)
CC(C)(O)c1cc2nc(C3CCN(Cc4cccnc4C4CCC(=O)NC4=O)CC3)oc2cc1NC(=O)c1cccc(C(F)(F)F)n1 (stereo not shown) [GT-07631, N-(2-(1-((2-(2,6-dioxopiperidin-3-yl)pyridin-3-yl)methyl)piperidin-4-yl)-5-(2-hydroxypropan-2-yl)benzo[d]oxazol-6-yl)-6-(trifluoromethyl)picolinamide]	A (A is defined as 0% ≤ substrate protein remaining % ≤ 80%)
